Data published in patent US10980824B2, “Pharmaceutical composition comprising quercetin-3-O-β-D-xylopyranoside for preventing or treating liver disease” (Hongcheon Institute of Medical Herb, priority 2016, dated 2021).

Key:
Format in all cases: in vivo, C57BL/6N mice
[1] = test system: alcoholic steatosis-induced mice; experiment: Progression of hepatic fibrosis in reticular fibers by Gomori Reticulum staining; details: 1 mg/kg oral 10 days; EtOH+B vs EtOH-fed (FIG. 9)
Experimental: (§1) 8-week-old C57BL/6N mice were purchased from DAEHAN BIOLINK to be used for efficacy evaluation and quarantined and acclimated in a vivarium of HONGCHEON INSTITUTE OF MEDICAL HERB for 7 days (relative temperature: 23±2° C., relative humidity: 50±5%, and a 12 h light-dark cycle) prior to the start of experimentation. Among them, 18 male mice with no abnormal symptoms were selected and used.
(§2) During a liquid diet adaptation period, a control group was restrictedly fed with a Lieber-DeCarli'82 control liquid diet (F1259SP, Bio-serv), and an alcohol-fed group was restrictedly fed with a Lieber-DeCarli'82 ethanol liquid diet (F1258SP, Bio-serv) using a Liquid diet feeding tube (9019, Bio-serv), and the diets were replaced with new ones at a preset time between 3 P.M. and 5 P.M.
(§3) After 5 days of the liquid diet adaptation period, the mice were orally administered with 1 mg/kg of quercetin-3-O-β-D-xylopyranoside (test substance) for 10 days and fed with a 5% alcohol liquid diet. At 11th day, between 7 A.M. and 9 A.M., a group not fed with alcohol (hereinafter referred to as Pair-fed group) was orally administered with a 45% maltose dextrin solution, and a group fed with a 5% liquid diet (hereinafter referred to as EtOH-fed) and a group administered with a test substance (hereinafter referred to as EtOH+B group) were orally fed with 31.5% ethanol. […]

[2] = test system: p-AMPKα; experiment: Western blot of p-AMPKα in liver tissue
Experimental: (§4) Expression of p-AMPKα, p-ACC, and CPT-1, which regulate intrahepatic lipid metabolism, was analyzed by western blot analysis to understand the mechanism involved in pathogenesis of alcoholic steatosis in detail. The specific western blot analysis method is as follows.
(§5) First, a mouse liver homogenate was prepared by using a RIPA buffer solution including a protease and tyrosine phosphatase inhibitor cocktail (Sigma). Protein concentrations of lysates were determined using a Bicinchoninic (BCA) Protein Assay Kit (Thermo Scientific, IL, USA) according to the manufacturer's instructions. Isolated soluble proteins ([…]) were separated on an 8% to 15% SDS-polyacrylamide gel. The separated proteins were electroblotted on a nitrocellulose transfer membrane (Bio-Rad, Hercules, Calif., USA). The membrane was incubated with 5% non-fat dry milk for 1 hour and then probed for antigens using antibodies diluted to 1:1,000, and was incubated with anti-pAMPKα, anti-AMPKα, anti-PACC, anti-ACC, anti-CYP2E1, anti-CPT1a (Cell Signaling Technology), and anti-β-actin (Santa Cruz Biotechnology) at 4° C. for 18 hours. […] Band density was measured using ImageJ (National Institutes of Health, Bethesda, Md., USA) and expressed as a multiple relative to β-actin.

[3] = test system: Fas gene; experiment: Real-time PCR of lipid metabolism gene expression in liver: Fas; details: liver mRNA, relative to Pair-fed group; EtOH+B group, 1 mg/kg oral 10 days (FIG. 11)
Experimental: as §1
as §2, with “5 P.M. […]” for “5 P.M.”
(§6) Real-time quantitative PCR was performed using a 7500 Real-time Thermal Cycler (Applied Biosystems, USA) with SYBR Green (Applied Biosystems, USA) to measure gene expression. […]
(§7) PCR amplification steps as described below were repeated for up to 40 cycles. […] Values were recorded after extension at every cycle.
(§8) After completion of all cycles, melting curve analysis was carried out to verify specificity of the primers. The results were analyzed using the One step system software v2.1 provided by Applied Biosystems.

[4] = test system: alcoholic steatosis-induced mice; experiment: Biochemical analysis of ALT and AST levels; details: 1 mg/kg oral 10 days; EtOH+B vs EtOH-fed (FIG. 10)
Experimental: as §1, §2, §3

[5] = test system: TNF-α; experiment: Inhibitory effect on TNF-α in alcoholic steatosis mice; details: liver tissue, vs alcohol-fed group (FIG. 12A)
Experimental: The level of TNF-α in liver tissue was measured by using RT-PCR and ELISA as described above in Example 2-7 to analyze whether the amount of TNF-α induced by alcohol was reduced due to treatment of quercetin-3-O-β-D-xylopyranoside.
A commercially available ELISA kit purchased from R&D Systems (Minneapolis, Minn.) was used.

[6] = test system: CPT-1; experiment: Western blot of CPT-1 in liver tissue; details: compound group vs alcohol-fed group
Experimental: as §4, §5

[7] = test system: MCP-1; experiment: mRNA level of MCP-1 by RT-PCR; details: alcohol+compound group vs alcohol-fed group (FIG. 14)
Description: (§9) Monocyte chemoattractant protein 1 (MCP-1), called chemokine ligand 2 (CCL2), is one of the key chemokines that regulate pathogeneses of several diseases caused by monocyte infiltration. Meanwhile, interleukin 1 beta (IL1β), also known as a leukocytic endogenous mediator and a lymphocyte activating factor, is a member of the interleukin 1 family of cytokines. The cytokines are produced by activated macrophages at a damaged region of tissue.
(§10) Specifically, mRNA levels of MCP-1 and IL-1β were analyzed by using RT-PCR as described above in Example 2-8.

[8] = test system: Cd36 gene; experiment: Real-time PCR of lipid metabolism gene expression in liver: Cd36; details: liver mRNA, relative to Pair-fed group; EtOH+B group, 1 mg/kg oral 10 days (FIG. 11)
Experimental: as §1
as §2, with “5 P.M. […]” for “5 P.M.”
as §6, §7, §8

[9] = test system: alcoholic steatosis-induced mice; experiment: Fat accumulation in the liver (visual observation, H&E staining, Oil Red O staining); details: 1 mg/kg oral 10 days
Experimental: as §1, §2, §3

[10] = Body weight, feed intake and excised organ weight of alcoholic steatosis-induced mice; details: 1 mg/kg oral 10 days; conclusion from body and organ weights
Experimental: as §1, §2
After 5 days of the liquid diet adaptation period, the mice were orally administered with 1 mg/kg of quercetin-3-O-β-D-xylopyranoside (test substance) for 10 days and fed with a 5% alcohol liquid diet. At 11th day, between 7 A.M. and 9 A.M., a group not fed with alcohol (hereinafter referred to as Pair-fed group) was orally administered with a 45% maltose dextrin solution, and a group fed with a 5% liquid diet (hereinafter referred to as EtOH-fed) and a group administered with a test substance (hereinafter referred to as EtOH+B group) were orally fed with 31.5% ethanol.
2-1. […]

[11] = test system: p-ACC; experiment: Western blot of p-ACC in liver tissue; details: compound group vs alcohol-fed group
Experimental: as §4, §5

[12] = test system: cytochrome P-450 2E1 (CYP2E1); experiment: Expression of cytochrome P-450 2E1 by tissue staining; details: liver tissue staining; 1 mg/kg oral 10 days; EtOH+B vs EtOH-fed (FIG. 8)
Experimental: as §1, §2, §3

[13] = test system: ApoB gene; experiment: Real-time PCR of lipid metabolism gene expression in liver: ApoB; details: liver mRNA, relative to Pair-fed group; EtOH+B group, 1 mg/kg oral 10 days (FIG. 11)
Experimental: as §1
as §2, with “5 P.M. […]” for “5 P.M.”
as §6, §7, §8

[14] = test system: alcoholic steatosis-induced mice; experiment: Apoptosis in liver tissue by TUNEL assay; details: alcohol+compound group vs group fed with only alcohol (FIG. 15)
Experimental: DNA fragmentation characteristics of apoptosis were examined using a terminal deoxynucleotidyl transferase (TdT)-FragEL kit (Oncogene Research Products, San Diego, Calif.).
First, a tissue sample fixed in 4% paraformaldehyde was embedded in paraffin and sliced into 5 μm sections. Replicated sections were rehydrated and permeabilized with proteinase K (20 μg/mL) at 25° C. for 20 minutes. Subsequently, the sections were covered with 3% H2O2 for 5 minutes to inactivate endogenous peroxidase. After the sample was incubated in a TdT buffer solution (200 mM sodium-cacodylate, 30 mM Tris, 0.3 mg/mL BSA, 0.75 mM CoCl2, pH 6.6) for 5 minutes, slides were covered with TdT and biotinylated dUTP and incubated in a humidified chamber at 37° C. for 1.5 hours. Negative controls were incubated with biotinylated dUTP in a TdT buffer solution without enzyme. Reactions were terminated by adding a stop buffer (0.5 M EDTA, pH 8.0) thereto at room temperature for 5 minutes. After blocking with 4% BSA, the slides were incubated with a streptavidin-horseradish peroxidase conjugate for 30 minutes. Subsequently, the sections were incubated in DAB at room temperature for 12 minutes and counterstained with methyl green. Apoptotic cells were identified by stained properties and morphological criteria (cell contraction, chromatin condensation and/or margination, and apoptotic bodies).

[15] = test system: Fabp gene; experiment: Real-time PCR of lipid metabolism gene expression in liver: Fabp; details: liver mRNA, relative to Pair-fed group; EtOH+B group, 1 mg/kg oral 10 days (FIG. 11)
Experimental: as §1
as §2, with “5 P.M. […]” for “5 P.M.”
as §6, §7, §8

[16] = test system: IL-1β; experiment: mRNA level of IL-1β by RT-PCR; details: alcohol+compound group vs alcohol-fed group (FIG. 14)
Description: as §9, §10

[17] = test system: alcoholic steatosis-induced mice; experiment: Concentrations of triglycerides in the blood and liver; details: 1 mg/kg oral 10 days; EtOH+B vs EtOH-fed (FIG. 7)
Experimental: as §1, §2, §3

[18] = test system: adiponectin; experiment: Effect on recovering adiponectin in alcoholic steatosis mice; details: alcohol+compound group vs alcohol-fed group (FIG. 13)
Experimental: Adiponectin, which is a major anti-inflammatory agent, is an adipose tissue-derived adipokine. […] Thus, a plasma level of adiponectin was analyzed by ELISA to evaluate the effect of quercetin-3-O-β-D-xylopyranoside on regulation of the adiponectin content.
Specifically, the plasma level of adiponectin was analyzed by using RT-PCR and ELISA in the same manner as the measurement of the TNF-α level in liver tissue as described above in Example 2-8.

In the case of `O=c1c(O[C@@H]2OC[C@@H](O)[C@H](O)[C@H]2O)c(-c2ccc(O)c(O)c2)oc2cc(O)cc(O)c12` [quercetin-3-O-β-D-xylopyranoside], the “progression of hepatic fibrosis in reticular fibers” value [1] is reported as “suppressed”, the “expression level of pAMPK” value ([2]; 10 mg/kg (FIGS. 16A and 16B)) is reported as “significantly increased” and the “expression levels of AMPK protein” value ([2]; among the groups (FIGS. 16A and 16B)) is reported as “no difference”. For the same compound, the “expression level of the Fas gene” value [3] was 1.1 times, the ALT level [4] was “decreased” and the AST level [4] was “decreased”. The “expression level of RNA of TNF-α” value ([5]; 1 mg/kg) was “significantly inhibited”, the “expression level of RNA of TNF-α” value ([5]; 10 mg/kg) was “significantly inhibited” and the CPT-1 level [6] was “significantly restored”. For the same compound, the “mRNA level of MCP-1” value [7] was “significantly reduced”, the “expression level of the Cd36 gene” value [8] was 0.98 times and the “amount of lipid accumulated in the liver, dissection and visual observation” value ([9]; EtOH+B vs EtOH-fed (FIG. 5)) was “significantly reduced”. For the same compound, the “amount of lipid droplets in the liver tissue, H&E and Oil Red O staining” value ([9]; EtOH+B vs EtOH-fed (FIG. 6)) was “significantly reduced”, the “toxicity to mice and internal organs” value [10] was “no toxicity” and the p-ACC level [11] was “significantly restored”. The CYP2E1 expression level [12] was “far lower”, the “expression level of the ApoB gene” value [13] was 0.8 times and the “degree of apoptosis in liver tissue” value [14] was “significantly reduced”. The “expression level of the Fabp gene” value [15] was 0.7 times, the “mRNA level of IL-1β” value [16] was “significantly reduced” and the “concentration of triglycerides in the blood” value [17] was “significantly reduced”. For the same compound, the “concentration of triglycerides in the liver” value [17] was “significantly reduced” and the plasma adiponectin level [18] was “significantly recovered”.
